Data published in the supplement of paper PMC10307832.

Columns and labels:
Test in all cases: relative viability (nuclei count vs DMSO), 5 days (fraction); higher = more cells survive
NCI-H661 = tested on: NCI-H661
Outline: (§1)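 Medians of duplicate plates are given as relative viability. That measure is the nuclei count in treated wells divided by the count in vehicle wells. Counts were taken on 4× images of lung cancer cell lines in 1536-well plates, 5 days after pin-tool dosing the day after seeding with one drug alone or a fixed anchor-drug dose plus five library-drug doses (not always all listed) in √10 steps.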

NCI-H2009 = tested on: NCI-H2009
Outline: as §1

CAL-12T = tested on: CAL-12T
Outline: as §1

NCI-H3122 = tested on: NCI-H3122
Outline: as §1

NCI-H1437 = tested on: NCI-H1437
Outline: as §1

NCI-H1666 = tested on: NCI-H1666
Outline: as §1

LK-2 = tested on: LK-2
Outline: as §1

NCI-H727 = tested on: NCI-H727
Outline: as §1

ABC-1 = tested on: ABC-1
Outline: as §1

EKVX = tested on: EKVX
Outline: as §1

NCI-H2170 = tested on: NCI-H2170
Outline: as §1

HARA = tested on: HARA
Outline: as §1

`Clc1ccc(Nc2nnc(Cc3ccncc3)c3ccccc23)cc1` [Vatalanib] + CCNC(=O)c1noc(-c2cc(C(C)C)c(O)cc2O)c1-c1ccc(CN2CCOCC2)cc1 [Luminespib] (partner 0.01 µM) showed a relative viability (NCI-H661; first compound 0.04 µM) of 0.887, a relative viability (NCI-H661; first compound 0.1265 µM) of 0.91 and a relative viability (NCI-H661; first compound 0.4 µM) of 0.998. The relative viability (NCI-H661; first compound 1.265 µM) was 0.89, the relative viability (NCI-H661; first compound 4 µM) was 0.931 and the relative viability (NCI-H2009; first compound 0.04 µM) was 1.11. The relative viability (NCI-H2009; first compound 0.1265 µM) was 0.983, the relative viability (NCI-H2009; first compound 0.4 µM) was 1.06 and the relative viability (NCI-H2009; first compound 1.265 µM) was 0.962. The relative viability (NCI-H2009; first compound 4 µM) was 1.04, the relative viability (CAL-12T; first compound 0.04 µM) was 0.722 and the relative viability (CAL-12T; first compound 0.1265 µM) was 0.406. The relative viability (CAL-12T; first compound 0.4 µM) was 0.502, the relative viability (CAL-12T; first compound 1.265 µM) was 0.255 and the relative viability (CAL-12T; first compound 4 µM) was 0.513. The relative viability (NCI-H3122; first compound 0.04 µM) was 0.0962, the relative viability (NCI-H3122; first compound 0.1265 µM) was 0.0894 and the relative viability (NCI-H3122; first compound 0.4 µM) was 0.0775. It also gave a relative viability (NCI-H3122; first compound 1.265 µM) of 0.0975, a relative viability (NCI-H3122; first compound 4 µM) of 0.0766 and a relative viability (NCI-H1437; first compound 0.04 µM) of 1.21. It also gave a relative viability (NCI-H1437; first compound 0.1265 µM) of 1.19, a relative viability (NCI-H1437; first compound 0.4 µM) of 1.13 and a relative viability (NCI-H1437; first compound 1.265 µM) of 1.12. It also gave a relative viability (NCI-H1437; first compound 4 µM) of 1.14, a relative viability (NCI-H1666; first compound 0.04 µM) of 0.986 and a relative viability (NCI-H1666; first compound 0.1265 µM) of 0.991. For the same compound, the relative viability (NCI-H1666; first compound 0.4 µM) was 0.996, the relative viability (NCI-H1666; first compound 1.265 µM) was 1.01 and the relative viability (NCI-H1666; first compound 4 µM) was 1.04. For the same compound, the relative viability (LK-2; first compound 0.04 µM) was 0.185, the relative viability (LK-2; first compound 0.1265 µM) was 0.217 and the relative viability (LK-2; first compound 0.4 µM) was 0.188. The relative viability (LK-2; first compound 1.265 µM) was 0.202, the relative viability (LK-2; first compound 4 µM) was 0.182 and the relative viability (NCI-H727; first compound 0.04 µM) was 0.339. The relative viability (NCI-H727; first compound 0.1265 µM) was 0.289, the relative viability (NCI-H727; first compound 0.4 µM) was 0.329 and the relative viability (NCI-H727; first compound 1.265 µM) was 0.635. It also gave a relative viability (NCI-H727; first compound 4 µM) of 0.392, a relative viability (ABC-1; first compound 0.04 µM) of 0.822 and a relative viability (ABC-1; first compound 1.265 µM) of 0.63. It also gave a relative viability (ABC-1; first compound 4 µM) of 0.507, a relative viability (EKVX; first compound 0.04 µM) of 0.904 and a relative viability (EKVX; first compound 0.1265 µM) of 0.805. The relative viability (EKVX; first compound 0.4 µM) was 0.876, the relative viability (EKVX; first compound 4 µM) was 0.852 and the relative viability (NCI-H2170; first compound 0.04 µM) was 0.79. It also gave a relative viability (NCI-H2170; first compound 0.1265 µM) of 0.644, a relative viability (NCI-H2170; first compound 0.4 µM) of 0.715 and a relative viability (NCI-H2170; first compound 1.265 µM) of 0.641. The relative viability (NCI-H2170; first compound 4 µM) was 0.692, the relative viability (HARA; first compound 0.04 µM) was 0.682 and the relative viability (HARA; first compound 0.1265 µM) was 0.617. It also gave a relative viability (HARA; first compound 0.4 µM) of 0.669.
